# In PMC10791897, “Ligand-binding properties of XaffOBP9, a Minus-C odorant-binding protein from Xyleborus affinis (Coleoptera: Curculionidae: Scolytinae)” (Frontiers in Physiology, 2024):
# “Also recorded” adds a separate entry of the source. Like-named read-outs stand apart in the source and are kept apart here.
# Tests used:
# XaffOBP9 = test: Fluorescence binding assays of XaffOBP9 (1-NPN titration and competitive binding); parameters: species or system Xyleborus affinis; settings: for Ki: calculated from IC50: Ki = [IC50]/(1 + [1-NPN]/K1-NPN); for IC50: competitor displacing 1-NPN, 2 μM protein, 50 mM Tris-HCl pH 7.4
# Method: (§1) The purified XaffOBP9 was dissolved at a final concentration of 2 μM in 50 mM Tris-HCl (pH 7.4). The binding ability of the fluorescent probe to XaffOBP9 was measured using the Infinite 200 PRO microplate plate reader (Tecan, Mannedorf, Switzerland). […] These compounds (>90% puity) were purchased from Yuanye Bio-Technology (Shanghai, China), Alading Chemical Industry (Shanghai, China) and Sigma-Aldrich (MO, United States). Binding data were collected as three independent measurements. […] The data analysis and binding curve calculations were processed in Prism 8 (Graphpad Software, San Diego, CA, United States).
# XaffOBP9 mutant L114A = test: Fluorescence binding assays of mutant L114A; parameters: species or system Xyleborus affinis; settings: for binding of ligand to L114A mutant protein: fluorescence binding assays, classes by Ki as in Figure 8 legend
# Method: (§2) The purified XaffOBP9 was dissolved at a final concentration of 2 μM in 50 mM Tris-HCl (pH 7.4). The binding ability of the fluorescent probe to XaffOBP9 was measured using the Infinite 200 PRO microplate plate reader (Tecan, Mannedorf, Switzerland). […] Binding data were collected as three independent measurements. […] The data analysis and binding curve calculations were processed in Prism 8 (Graphpad Software, San Diego, CA, United States).
# (§3) Three types of XaffOBP9 mutants (L71A, L114A, Y106A) were generated using the Fast Site-Directed Mutagenesis Kit (Tiangen, Beijing, China) according to manufacturer protocol. Sited-directed mutagenesis primers were listed in Supplementary Table S1 The PCR amplification reaction was 95°C for 2 min, followed by 94 C for 20 s, 55 C for 10 s, 68 C 2.5 min, with final incubation at 68 °C for 5 min. The three mutant proteins were then expressed and purified following the procedures used for wild-type XaffOBP9.
# X. affinis = settings: cited from earlier work; for attraction of X. affinis: 2020
# XaffOBP9 mutant Y106A = test: Fluorescence binding assays of mutant Y106A; parameters: species or system Xyleborus affinis
# Method: as §2, §3
# XaffOBP9 mutant L71A = test: Fluorescence binding assays of mutant L71A; parameters: species or system Xyleborus affinis; settings: read-out: Kd with 1-NPN
# Method: as §1, §3
smiles,measurement,setting,value
"C=C1C2CCC3C2C(C)(C)CCCC13C (single isomer, unassigned; (+)) [(+)-Longifolene]",Ki,XaffOBP9,16.7 µM
same,IC50,XaffOBP9,19.5 µM
same,binding of ligand to L114A mutant protein,XaffOBP9 mutant L114A,lost its ability to bind
same,attraction of X. affinis,X. affinis; ref Xu et al.,attraction effect
CC(C)(O)c1ccccc1 [2-Phenyl-2-propanol],Ki,XaffOBP9,12 µM
same,IC50,XaffOBP9,14 µM
same,binding of ligand to L114A mutant protein,XaffOBP9 mutant L114A,lost its ability to bind
same,attraction of X. affinis,X. affinis; ref Xu et al.,attraction effect
C=C1CCC2CC1C2(C)C (stereo not drawn) [(-)-β-pinene],Ki,XaffOBP9,13.7 µM
same,IC50,XaffOBP9,16 µM
C=C(C)[C@@H]1CC=C(C)CC1 [(S)-(-)-Limonene],Ki,XaffOBP9,14 µM
same,IC50,XaffOBP9,16.4 µM
same,binding of ligand to L114A mutant protein,XaffOBP9 mutant L114A,lost its ability to bind
CC1=CC(O)C2CC1C2(C)C [(S)-cis-Verbenol],Ki,XaffOBP9,13.9 µM
same,IC50,XaffOBP9,16.2 µM
same,binding of ligand to L114A mutant protein,XaffOBP9 mutant L114A,weakly bound
same,attraction of this rubber bark beetle,"X. affinis; aggregation pheromone, ref Brand et al., 1975, Chen et al., 2019",exhibits attraction effects
C=C1C2CCC(C2)C1(C)C (stereo not drawn) [Camphene],Ki,XaffOBP9,8 µM
same,IC50,XaffOBP9,9.3 µM
"c1ccc(Nc2cccc3ccccc23)cc1 [Ligand 1-NPN, N-phentl-1-naphthylamine, reference compound]",Kd,"XaffOBP9 mutant Y106A; read-out: Kd with 1-NPN, mutant Y106A",8.7 µM
same,Kd,"XaffOBP9; read-out: dissociation constant K 1-NPN, titration of 2 μM protein with 1-NPN, Scatchard plot",5.91 µM
same,Kd,XaffOBP9 mutant L71A,5.97 µM
same,Kd,"XaffOBP9 mutant L114A; read-out: Kd with 1-NPN, mutant L114A",14.8 µM
"CC1=CCC2C(C1)C2(C)C (stereo not drawn) [Ligand 3-Carene, 3-Carene]",Ki,XaffOBP9,10.6 µM
same,IC50,XaffOBP9,12.4 µM
same,binding of ligand to L114A mutant protein,XaffOBP9 mutant L114A,lost its ability to bind
CCCCCCCCCCCCCCCC(=O)OC [Methyl palmitate],reduction of relative fluorescence intensity of the [XaffOBP/1-NPN] mixture,XaffOBP9; competitive fluorescence binding curves,did not reduce the relative fluorescence intensity to less than half
C=CC(=C)CCC=C(C)C [Myrcene],Ki,XaffOBP9,9.8 µM
same,IC50,XaffOBP9,11.4 µM
same,binding of ligand to L114A mutant protein,XaffOBP9 mutant L114A,lost its ability to bind
C=C1CCC2(C(C)C)CC12 (stereo not drawn) [Sabinene],Ki,XaffOBP9,15.6 µM
same,IC50,XaffOBP9,18.2 µM
same,binding of ligand to L114A mutant protein,XaffOBP9 mutant L114A,lost its ability to bind
CC1=CCC(=C(C)C)CC1 [Terpinolene],Ki,XaffOBP9,11.3 µM
same,IC50,XaffOBP9,13.2 µM
same,binding of ligand to L114A mutant protein,XaffOBP9 mutant L114A,lost its ability to bind
CCCCCCCCCCCCCC [Tetradecane],change of binding affinity of Y106A compared with WT,XaffOBP9 mutant Y106A; fluorescence binding assays,noticeable decrease in its affinity; also recorded: certain decrease in binding
same,Ki,XaffOBP9,13.5 µM
same,IC50,XaffOBP9,15.7 µM
same,binding of ligand to L114A mutant protein,XaffOBP9 mutant L114A,lost its ability to bind
same,attraction of X. affinis,X. affinis; ref Xu et al.,attraction effect
CCO [ethanol],attraction of X. affinis,"X. affinis; attractant lure, ref Ranger et al., 2011, Steininger et al., 2015, Lehenberger et al., Cavaletto et al., 2021",only weakly attracted
Cc1cccc(C(C)C)c1 [m-Cymene],Ki,XaffOBP9,14.8 µM
same,IC50,XaffOBP9,17.3 µM
same,binding of ligand to L114A mutant protein,XaffOBP9 mutant L114A,weakly bound
CC1=CC[C@H]2[C@H]3[C@@H]1[C@]2(C)CC[C@H]3C(C)C [α-copaene],Ki,XaffOBP9,11.4 µM
same,IC50,XaffOBP9,13.3 µM
same,binding of ligand to L114A mutant protein,XaffOBP9 mutant L114A,weakly bound
CC1=CCC2CC1C2(C)C (stereo not drawn) [α-pinene],Ki,XaffOBP9,8.5 µM
same,IC50,XaffOBP9,9.9 µM
same,effect on attraction of X. affinis,"X. affinis; trapping investigations, ref Miller and Rabaglia, 2009",enhance the attractive effect of ethanol
